Source: US20230212180A1, “SUBSTITUTED PYRAZINE COMPOUND, PHARMACEUTICAL COMPOSITION COMPRISING SAME, AND USE THEREOF” (Sichuan Kelun-Biotech Biopharmaceutical Co., Ltd., priority 2020, published 2023)

Tests used:
[1] = molecular target: T1, recombinant full-length human PTPN11 (SHP2) (Homo sapiens, UniProt Q06124); experiment: Inhibition of in vitro enzyme activity of SHP2 (DiFMUP fluorescence endpoint assay); type: biochemical; details: SHP2 0.5 nM, DiFMUP 200 μM, IRS-1 0.5 μM; 60 min incubation
T1 construct: recombinant full-length human PTPN11 (SHP2), active (SignalChem); purchased SignalChem
T1 sequence (Q06124 1-593): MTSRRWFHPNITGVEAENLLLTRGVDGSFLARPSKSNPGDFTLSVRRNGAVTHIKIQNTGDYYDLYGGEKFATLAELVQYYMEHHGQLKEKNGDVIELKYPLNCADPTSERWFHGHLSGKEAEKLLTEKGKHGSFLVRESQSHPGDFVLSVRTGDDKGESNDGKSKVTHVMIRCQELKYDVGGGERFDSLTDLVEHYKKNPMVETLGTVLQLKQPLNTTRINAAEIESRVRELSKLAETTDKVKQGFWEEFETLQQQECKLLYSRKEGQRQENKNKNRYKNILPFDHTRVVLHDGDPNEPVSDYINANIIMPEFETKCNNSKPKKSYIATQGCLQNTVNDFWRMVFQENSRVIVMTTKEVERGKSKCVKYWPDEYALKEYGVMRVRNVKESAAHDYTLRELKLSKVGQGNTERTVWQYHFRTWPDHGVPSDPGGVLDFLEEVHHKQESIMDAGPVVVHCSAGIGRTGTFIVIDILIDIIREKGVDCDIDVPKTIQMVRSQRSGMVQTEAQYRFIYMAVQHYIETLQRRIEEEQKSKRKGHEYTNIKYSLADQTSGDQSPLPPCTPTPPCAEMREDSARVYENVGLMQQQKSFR
Experimental: Test Example 1: Experiment on the Inhibition of In Vitro Enzyme Activity of SHP2 (Protein Phosphatase)
phosphatase: recombinant full-length human PTPN11 (SHP2), active (SignalChem);
substrate: 6,8-difluoro-4-methylumbelliferyl phosphate (DiFMUP) (Invitrogen);
activating peptide: IRS1_pY1172(dPEG8)pY1222 (IRS1) (BPS Bioscience);
terminator: bpv(phen) (bpv) (Abcam).
SHP2 concentration: 0.5 nM;
DiFMUP concentration: 200 μM;
IRS-1 concentration: 0.5 μM;
bpv concentration: 160 μM;
buffer systems: 60 mM Hepes pH 7.2; 75 mM NaCl; 75 mM KCl; 0.05% surfactant P20; 1 mM EDTA; 5 mM DTT;
incubation duration of compound and enzyme: 60 minutes;
reaction time of enzyme and substrate: 30 minutes;
parameters for microplate reader: BMG PHERAstar fluorescence microplate reader at an excitation wavelength of 340 nm and an emission wavelength of 450 nm.
Test group: A mixture of the test compound and the phosphatase SHP2 together with the activating peptide IRS-1 were incubated in the buffer system at room temperature for 60 minutes. The substrate DiFMUP was added to initiate the reaction and incubated at room temperature for 30 minutes. Thereafter, bpv was added to terminate the reaction. The reaction plate was placed in the microplate reader, and the fluorescence intensities of the wells in the plate were measured using an endpoint assay.
Negative group: The experimental method for the negative group was the same as that for the test group, except that the test compound was substituted with 0.05% aqueous solution of DMSO.
Blank group: The experimental method for the blank group was the same as that for the test group, except that the test compound was substituted with 0.05% aqueous solution of DMSO and that SHP2 was not added.
The relative inhibitory activity was calculated for the test group at each concentration based on the following equation: inhibition rate (%)=100%−(the fluorescence intensity of the test group−the fluorescence intensity of the blank group)/(the fluorescence intensity of the negative group−the fluorescence intensity of the blank group)×100%. The half maximal inhibitory concentration (IC50) of the compound was calculated by fitting the curve according to the four-parameter logistic model.

[2] = test system: KYSE-520 cell (human esophageal squamous cell carcinoma cell); experiment: Inhibition of the proliferation activity of KYSE-520 cell (CellTiter-Glo); type: cell-based; details: 120 h, KYSE-520 cell proliferation, 5 days
Experimental: Test Example 2: Experiment on the Inhibition of the Proliferation Activity of KYSE-520 Cell (Human Esophageal Squamous Cell Carcinoma Cell)
cell: KYSE-520 (JCRB Cell Bank);
kit: CellTiter-Glo® Luminescent Cell Viability Assay Kit (Promega).
inoculation amount of cell: 1500 cells/well;
incubation conditions for compound: 37° C., 5% CO2;
incubation duration: 5 days;
detecting temperature: room temperature;
chemiluminescence detection using the BMG PHERAstar FS reader.
Cells were cultured in a medium containing 10% fetal bovine serum under the culture conditions of 37° C. and 5% CO2. An appropriate amount of cells were plated into a 96-well plate and cultured overnight in an incubator to allow the cells to adhere to the wall. The following day, the medium was removed and a complete medium containing a pre-diluted compound was added and incubated at 37° C. for 5 days. On the fifth day, the detection reagent CellTiter-Glo® was added into each well. Chemiluminescence was adopted to detect the relative luminescence units (RLUs) of the wells.
The result of a well containing cell-free medium, treated with CellTiter-Glo®, was obtained as the blank value. Cell viability (%)=(sample RLU−blank RLU)/(vehicle RLU−blank RLU)×100%, and maximum inhibition rate (%)=100%−cell viabilitymax. conc. (%). The half maximal inhibitory concentration (IC50) of the compound was calculated by fitting the curve according to the four-parameter logistic model.

[3] = molecular target: T2, hERG (Homo sapiens, UniProt Q12809); experiment: Biochemical assay for hERG inhibition (Predictor hERG Fluorescence Polarization Assay Kit); type: binding
T2 construct: purchased ThermoFisher
T2 sequence (Q12809 whole entry): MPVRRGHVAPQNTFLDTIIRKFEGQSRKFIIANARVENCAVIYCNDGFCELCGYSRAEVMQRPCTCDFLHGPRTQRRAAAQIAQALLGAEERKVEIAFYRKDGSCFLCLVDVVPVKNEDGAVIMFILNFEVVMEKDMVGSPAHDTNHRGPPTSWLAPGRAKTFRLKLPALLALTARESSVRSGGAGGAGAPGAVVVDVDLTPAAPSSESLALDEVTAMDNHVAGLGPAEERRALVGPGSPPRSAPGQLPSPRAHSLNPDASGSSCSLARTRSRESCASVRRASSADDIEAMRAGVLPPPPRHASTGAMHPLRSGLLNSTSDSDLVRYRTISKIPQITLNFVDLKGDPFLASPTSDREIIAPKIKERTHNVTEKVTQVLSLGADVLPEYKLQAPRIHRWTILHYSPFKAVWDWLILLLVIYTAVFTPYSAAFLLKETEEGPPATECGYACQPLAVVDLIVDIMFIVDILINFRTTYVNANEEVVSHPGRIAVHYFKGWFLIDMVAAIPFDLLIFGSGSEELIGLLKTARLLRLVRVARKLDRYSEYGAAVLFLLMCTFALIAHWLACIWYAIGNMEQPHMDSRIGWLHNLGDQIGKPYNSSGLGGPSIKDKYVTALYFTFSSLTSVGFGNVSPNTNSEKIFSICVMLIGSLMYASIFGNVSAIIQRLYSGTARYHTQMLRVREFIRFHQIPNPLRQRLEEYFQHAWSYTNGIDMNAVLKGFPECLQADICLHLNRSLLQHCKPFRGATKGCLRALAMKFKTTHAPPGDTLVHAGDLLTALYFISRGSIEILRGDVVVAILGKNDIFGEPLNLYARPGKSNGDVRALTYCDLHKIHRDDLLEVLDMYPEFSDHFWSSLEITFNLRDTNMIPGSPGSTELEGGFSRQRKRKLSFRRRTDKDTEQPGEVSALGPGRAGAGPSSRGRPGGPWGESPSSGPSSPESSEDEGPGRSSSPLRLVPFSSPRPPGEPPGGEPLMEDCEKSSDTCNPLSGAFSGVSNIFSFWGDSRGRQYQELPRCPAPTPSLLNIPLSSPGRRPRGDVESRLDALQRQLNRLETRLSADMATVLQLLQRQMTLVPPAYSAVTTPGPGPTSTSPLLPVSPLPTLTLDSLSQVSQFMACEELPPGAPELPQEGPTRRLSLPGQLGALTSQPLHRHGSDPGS
Experimental: Test Example 3: Biochemical Assay for hERG Inhibition
kit: Predictor™ hERG Fluorescence Polarization Assay Kit (ThermoFisher) containing:
Compound E4031 as a positive control;
tracer concentration: 1 nM;
incubation duration: 2 hours;
parameters for microplate reader: BMG PHERAstar FS fluorescence microplate reader.
Test group: The test compounds at different concentrations were added into a microplate containing hERG cell membrane, and the tracer with a high affinity for hERG was then added into each well. The microplate was incubated at 25° C. for 2 hours before detection of the change in fluorescence polarization value (mP) (excitation wavelength: 540 nm; emission wavelength: 590 nm) using a multi-mode microplate reader.
Positive control group: The experimental method for the positive control group was the same as that for the test group, except that the test compound was replaced with 30 μM Compound E4031.
Blank control group: The experimental method for the blank control group was the same as that for the test group, except that the test compound was replaced with the hERG buffer and that the hERG cell membrane was not added.
Based on the data ratios, the percentage inhibition (%) of the compounds of the present disclosure against hERG at different concentrations was calculated and the range of the half maximal inhibitory concentration (IC50) of the compounds was determined. Percentage inhibition (%)=(1−(mP of the test compound−mP of the positive control group)/(mP of the blank control group−mP of the positive control group))×100%.

Row | SMILES | IC50 [1] [nM] | IC50 [2] [nM] | IC50 [3] [nM]
1 | C[C@@H]1OCC2(CCN(c3ncc(Sc4ccnc(N5CC(F)(CO)C5)c4Cl)nc3CO)CC2)[C@@H]1N [Example 39, (3-((3S,4S)-4-amino-3-methyl-2-oxa-8-azaspiro[4.5]decan-8-yl)-6-(3-chloro-2-(3-fluoro-3-(hydroxymethyl)azetidin-1-yl)pyridin-4-ylthio)pyrazin-2-yl)methanol] | 1.4 | 20 | > 10000
2 | C[C@@H]1OCC2(CCN(c3ncc(Sc4ccnc(N5CCCC5CC#N)c4Cl)nc3CO)CC2)[C@@H]1N (stereo partly drawn) [Example 18, 2-(1-(4-(5-((3S,4S)-4-amino-3-methyl-2-oxa-8-azaspiro[4.5]decan-8-yl)-6-(hydroxymethyl)pyrazin-2-ylthio)-3-chloropyridin-2-yl)pyrrolidin-2-yl)acetonitrile] | 1.9 | 240 | > 10000
3 | C[C@@H]1OCC2(CCN(c3ncc(Sc4ccnc(N5CC(C(C)(C)C#N)C5)c4Cl)nc3CO)CC2)[C@@H]1N [Example 30, 2-(1-(4-(5-((3S,4S)-4-amino-3-methyl-2-oxa-8-azaspiro[4.5]decan-8-yl)-6-(hydroxymethyl)pyrazin-2-ylthio)-3-chloropyridin-2-yl)azetidin-3-yl)-2-methylpropanenitrile] | 4 | – | > 10000
4 | N[C@@H]1COCC12CCN(c1ncc(Sc3ccnc(N4CCCC4CO)c3Cl)nc1CO)CC2 (stereo partly drawn) [Example 7, (3-((S)-4-amino-2-oxa-8-azaspiro[4.5]decan-8-yl)-6-(3-chloro-2-(2-(hydroxymethyl)pyrrolidin-1-yl)pyridin-4-ylthio)pyrazin-2-yl)methanol] | 4.6 | 770 | > 10000
5 | C[C@@H]1OCC2(CCN(c3ncc(Sc4ccnc(N5CCCC5CO)c4Cl)nc3CF)CC2)[C@@H]1N (stereo partly drawn) [Example 4, (1-(4-(5-((3S,4S)-4-amino-3-methyl-2-oxa-8-azaspiro[4.5]decan-8-yl)-6-(fluoromethyl)pyrazin-2-ylthio)-3-chloropyridin-2-yl)pyrrolidin-2-yl)methanol] | 4.1 | 170 | > 10000
6 | C[C@@H]1OCC2(CCN(c3ncc(Sc4ccnc(N5CC[C@H]5CO)c4Cl)nc3CO)CC2)[C@@H]1N [Example 9, (3-((3S,4S)-4-amino-3-methyl-2-oxa-8-azaspiro[4.5]decan-8-yl)-6-(3-chloro-2-((S)-2-(hydroxymethyl)azetidin-1-yl)pyridin-4-ylthio)pyrazin-2-yl)methanol] | 1.3 | 220 | > 10000
